Reference: ChEMBL document CHEMBL1909046, “DrugMatrix in vitro pharmacology data”

molecular target: 5-hydroxytryptamine receptor 1B (Rattus norvegicus, UniProt P28564); type: cell membranes, Wistar, Cerebral cortex, Membrane; conditions: not given; further: in other assays of this panel Not Active means under 50% inhibition at 10 µM
Sequence (P28564 whole entry): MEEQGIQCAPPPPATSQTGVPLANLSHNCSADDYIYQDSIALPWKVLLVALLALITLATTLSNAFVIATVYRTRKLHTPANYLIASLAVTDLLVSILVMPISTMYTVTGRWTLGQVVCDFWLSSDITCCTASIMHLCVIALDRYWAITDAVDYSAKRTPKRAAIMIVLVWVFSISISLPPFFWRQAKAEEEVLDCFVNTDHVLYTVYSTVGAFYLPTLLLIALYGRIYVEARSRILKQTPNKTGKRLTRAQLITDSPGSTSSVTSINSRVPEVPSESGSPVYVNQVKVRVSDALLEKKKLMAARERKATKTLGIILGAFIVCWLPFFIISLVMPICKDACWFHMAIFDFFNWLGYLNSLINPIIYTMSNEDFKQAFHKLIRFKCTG

SMILES	IC50
CC(CN1c2ccccc2Sc2ccccc21)N(C)C (configuration not stated) [PROMETHAZINE]	Not Active
COc1cc(NC(C)CCCN)c2ncccc2c1 (configuration not stated) [PRIMAQUINE]	Not Active
CCCCCCNC(=O)n1cc(F)c(=O)[nH]c1=O [CARMOFUR]	Not Active
O=c1[nH]c2ccccc2c2ccccc12	Not Active
C=C(Cl)Cl [1,1-DICHLOROETHENE]	Not Active
CC(=O)[C@]1(O)Cc2c(O)c3c(c(O)c2[C@@H](O[C@H]2C[C@H](N)[C@H](O)[C@H](C)O2)C1)C(=O)c1ccccc1C3=O [IDARUBICIN]	Not Active
Oc1ccccc1 [PHENOL]	Not Active
O=C(Nc1ccc(Cl)c(Cl)c1)c1cc(Cl)cc(Cl)c1O [3,3',4',5-TETRACHLOROSALICYLANILIDE]	Not Active
CC(=O)Nc1ccc2c(c1)Cc1ccccc1-2 [2-ACETYLAMINOFLUORENE]	Not Active
C[N+](C)(C)CCOC(N)=O.[Cl-] [CARBACHOL]	Not Active
Oc1ncnc2[nH]ncc12 [ALLOPURINOL]	Not Active

same assay, conditions: read-out: IC50

SMILES	IC50 [nM]
Cc1cc(C(C)(C)C)c(O)c(C)c1CC1=NCCN1 [OXYMETAZOLINE]	2

same assay, conditions: read-out: Ki

SMILES	Ki [nM]
Cc1cc(C(C)(C)C)c(O)c(C)c1CC1=NCCN1 [OXYMETAZOLINE]	0.909

molecular target: T1, Caspase-1 (Homo sapiens, UniProt P29466); design: species or system Escherichia coli; conditions: not given;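 further: Caspase-1 enzyme inhibition assay with a peptide substrate; in other assays of this panel Not Active means under 50% inhibition at 10 µM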
T1 sequence (P29466 whole entry): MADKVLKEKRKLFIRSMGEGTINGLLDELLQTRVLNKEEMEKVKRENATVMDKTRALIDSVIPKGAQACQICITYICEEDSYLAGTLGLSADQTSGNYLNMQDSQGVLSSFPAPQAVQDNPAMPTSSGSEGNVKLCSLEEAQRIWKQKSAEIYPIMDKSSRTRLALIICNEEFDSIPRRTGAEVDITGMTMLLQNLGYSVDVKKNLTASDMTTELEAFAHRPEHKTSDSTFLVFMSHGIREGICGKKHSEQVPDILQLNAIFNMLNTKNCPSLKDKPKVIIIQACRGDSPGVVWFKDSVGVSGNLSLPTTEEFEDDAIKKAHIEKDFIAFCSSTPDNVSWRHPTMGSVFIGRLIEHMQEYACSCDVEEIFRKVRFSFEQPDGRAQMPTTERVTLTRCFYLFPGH

SMILES	IC50
CC(CN1c2ccccc2Sc2ccccc21)N(C)C (configuration not stated) [PROMETHAZINE]	Not Active
COc1cc(NC(C)CCCN)c2ncccc2c1 (configuration not stated) [PRIMAQUINE]	Not Active
CCCCCCNC(=O)n1cc(F)c(=O)[nH]c1=O [CARMOFUR]	Not Active
Cc1cc(C(C)(C)C)c(O)c(C)c1CC1=NCCN1 [OXYMETAZOLINE]	Not Active
O=c1[nH]c2ccccc2c2ccccc12	Not Active
C=C(Cl)Cl [1,1-DICHLOROETHENE]	Not Active
CC(=O)[C@]1(O)Cc2c(O)c3c(c(O)c2[C@@H](O[C@H]2C[C@H](N)[C@H](O)[C@H](C)O2)C1)C(=O)c1ccccc1C3=O [IDARUBICIN]	Not Active
Oc1ccccc1 [PHENOL]	Not Active
O=C(Nc1ccc(Cl)c(Cl)c1)c1cc(Cl)cc(Cl)c1O [3,3',4',5-TETRACHLOROSALICYLANILIDE]	Not Active
CC(=O)Nc1ccc2c(c1)Cc1ccccc1-2 [2-ACETYLAMINOFLUORENE]	Not Active
C[N+](C)(C)CCOC(N)=O.[Cl-] [CARBACHOL]	Not Active
Oc1ncnc2[nH]ncc12 [ALLOPURINOL]	Not Active

molecular target: Nitric oxide synthase 1 (Rattus norvegicus, UniProt P29476); type: tissue-based, Cerebellum; conditions: not given; further: in other assays of this panel Not Active means under 50% inhibition at 10 µM
Sequence (P29476 whole entry): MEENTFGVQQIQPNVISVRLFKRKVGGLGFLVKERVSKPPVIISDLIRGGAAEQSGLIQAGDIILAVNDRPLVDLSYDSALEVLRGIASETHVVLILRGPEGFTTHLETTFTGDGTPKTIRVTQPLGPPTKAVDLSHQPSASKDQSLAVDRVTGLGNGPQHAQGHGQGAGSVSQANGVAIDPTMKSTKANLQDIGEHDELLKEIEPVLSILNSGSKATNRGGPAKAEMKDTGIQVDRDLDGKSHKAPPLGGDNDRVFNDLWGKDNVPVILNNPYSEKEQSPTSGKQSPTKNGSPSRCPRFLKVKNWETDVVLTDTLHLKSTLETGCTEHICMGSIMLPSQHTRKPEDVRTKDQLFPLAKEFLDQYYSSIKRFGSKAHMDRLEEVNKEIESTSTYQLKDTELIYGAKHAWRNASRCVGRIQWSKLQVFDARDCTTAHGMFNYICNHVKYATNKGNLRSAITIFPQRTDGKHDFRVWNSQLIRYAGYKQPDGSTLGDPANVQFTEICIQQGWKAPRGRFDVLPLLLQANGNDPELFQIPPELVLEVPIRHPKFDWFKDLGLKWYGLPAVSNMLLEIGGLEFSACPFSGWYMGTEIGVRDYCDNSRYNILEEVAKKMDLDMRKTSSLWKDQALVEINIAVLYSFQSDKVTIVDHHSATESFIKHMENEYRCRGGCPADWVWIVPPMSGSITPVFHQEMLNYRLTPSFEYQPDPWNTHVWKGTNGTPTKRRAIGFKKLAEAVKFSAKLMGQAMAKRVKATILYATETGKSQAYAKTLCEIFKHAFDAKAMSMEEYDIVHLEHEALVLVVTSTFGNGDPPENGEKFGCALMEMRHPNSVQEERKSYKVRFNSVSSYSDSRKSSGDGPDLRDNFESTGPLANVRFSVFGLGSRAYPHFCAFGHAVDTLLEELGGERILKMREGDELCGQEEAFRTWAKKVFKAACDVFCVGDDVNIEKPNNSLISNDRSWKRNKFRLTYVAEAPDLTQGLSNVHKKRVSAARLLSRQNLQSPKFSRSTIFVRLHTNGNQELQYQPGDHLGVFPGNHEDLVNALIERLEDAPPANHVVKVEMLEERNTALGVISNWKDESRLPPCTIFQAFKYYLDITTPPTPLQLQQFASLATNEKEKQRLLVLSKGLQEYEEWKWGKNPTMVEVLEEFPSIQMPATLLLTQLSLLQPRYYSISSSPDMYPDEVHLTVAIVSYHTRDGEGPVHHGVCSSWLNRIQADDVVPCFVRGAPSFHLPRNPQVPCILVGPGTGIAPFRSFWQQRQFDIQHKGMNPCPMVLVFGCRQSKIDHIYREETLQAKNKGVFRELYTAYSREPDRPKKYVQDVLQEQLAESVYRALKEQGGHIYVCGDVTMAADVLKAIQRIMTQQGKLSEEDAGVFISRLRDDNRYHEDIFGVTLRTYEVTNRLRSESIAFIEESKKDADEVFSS

SMILES	IC50
CC(CN1c2ccccc2Sc2ccccc21)N(C)C (configuration not stated) [PROMETHAZINE]	Not Active
COc1cc(NC(C)CCCN)c2ncccc2c1 (configuration not stated) [PRIMAQUINE]	Not Active
CCCCCCNC(=O)n1cc(F)c(=O)[nH]c1=O [CARMOFUR]	Not Active
Cc1cc(C(C)(C)C)c(O)c(C)c1CC1=NCCN1 [OXYMETAZOLINE]	Not Active
O=c1[nH]c2ccccc2c2ccccc12	Not Active
C=C(Cl)Cl [1,1-DICHLOROETHENE]	Not Active
CC(=O)[C@]1(O)Cc2c(O)c3c(c(O)c2[C@@H](O[C@H]2C[C@H](N)[C@H](O)[C@H](C)O2)C1)C(=O)c1ccccc1C3=O [IDARUBICIN]	Not Active
Oc1ccccc1 [PHENOL]	Not Active
O=C(Nc1ccc(Cl)c(Cl)c1)c1cc(Cl)cc(Cl)c1O [3,3',4',5-TETRACHLOROSALICYLANILIDE]	Not Active
CC(=O)Nc1ccc2c(c1)Cc1ccccc1-2 [2-ACETYLAMINOFLUORENE]	Not Active
C[N+](C)(C)CCOC(N)=O.[Cl-] [CARBACHOL]	Not Active
Oc1ncnc2[nH]ncc12 [ALLOPURINOL]	Not Active

molecular target: T2, Neuropeptide Y receptor type 2 (Homo sapiens, UniProt P49146); type: cell membranes, Membrane; conditions: kan-ts; further: in other assays of this panel Not Active means under 50% inhibition at 10 µM
T2 sequence (P49146 whole entry): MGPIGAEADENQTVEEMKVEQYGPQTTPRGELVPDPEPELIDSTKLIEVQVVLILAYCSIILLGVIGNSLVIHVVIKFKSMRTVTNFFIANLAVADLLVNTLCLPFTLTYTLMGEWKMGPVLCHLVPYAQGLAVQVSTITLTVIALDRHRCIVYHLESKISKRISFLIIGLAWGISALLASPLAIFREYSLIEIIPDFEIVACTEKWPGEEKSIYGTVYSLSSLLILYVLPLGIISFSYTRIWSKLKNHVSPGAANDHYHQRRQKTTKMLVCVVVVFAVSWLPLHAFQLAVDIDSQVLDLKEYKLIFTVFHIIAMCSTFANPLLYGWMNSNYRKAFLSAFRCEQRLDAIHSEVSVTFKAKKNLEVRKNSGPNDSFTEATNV

SMILES	IC50
CC(CN1c2ccccc2Sc2ccccc21)N(C)C (configuration not stated) [PROMETHAZINE]	Not Active
COc1cc(NC(C)CCCN)c2ncccc2c1 (configuration not stated) [PRIMAQUINE]	Not Active
CCCCCCNC(=O)n1cc(F)c(=O)[nH]c1=O [CARMOFUR]	Not Active
Cc1cc(C(C)(C)C)c(O)c(C)c1CC1=NCCN1 [OXYMETAZOLINE]	Not Active
O=c1[nH]c2ccccc2c2ccccc12	Not Active
C=C(Cl)Cl [1,1-DICHLOROETHENE]	Not Active
CC(=O)[C@]1(O)Cc2c(O)c3c(c(O)c2[C@@H](O[C@H]2C[C@H](N)[C@H](O)[C@H](C)O2)C1)C(=O)c1ccccc1C3=O [IDARUBICIN]	Not Active
Oc1ccccc1 [PHENOL]	Not Active
O=C(Nc1ccc(Cl)c(Cl)c1)c1cc(Cl)cc(Cl)c1O [3,3',4',5-TETRACHLOROSALICYLANILIDE]	Not Active
CC(=O)Nc1ccc2c(c1)Cc1ccccc1-2 [2-ACETYLAMINOFLUORENE]	Not Active
C[N+](C)(C)CCOC(N)=O.[Cl-] [CARBACHOL]	Not Active
Oc1ncnc2[nH]ncc12 [ALLOPURINOL]	Not Active

molecular target: T3, Muscarinic acetylcholine receptor M5 (Homo sapiens, UniProt P08912); type: cell membranes, CHO-K1, Membrane; conditions: cho-k1; further: in other assays of this panel Not Active means under 50% inhibition at 10 µM
T3 sequence (P08912 whole entry): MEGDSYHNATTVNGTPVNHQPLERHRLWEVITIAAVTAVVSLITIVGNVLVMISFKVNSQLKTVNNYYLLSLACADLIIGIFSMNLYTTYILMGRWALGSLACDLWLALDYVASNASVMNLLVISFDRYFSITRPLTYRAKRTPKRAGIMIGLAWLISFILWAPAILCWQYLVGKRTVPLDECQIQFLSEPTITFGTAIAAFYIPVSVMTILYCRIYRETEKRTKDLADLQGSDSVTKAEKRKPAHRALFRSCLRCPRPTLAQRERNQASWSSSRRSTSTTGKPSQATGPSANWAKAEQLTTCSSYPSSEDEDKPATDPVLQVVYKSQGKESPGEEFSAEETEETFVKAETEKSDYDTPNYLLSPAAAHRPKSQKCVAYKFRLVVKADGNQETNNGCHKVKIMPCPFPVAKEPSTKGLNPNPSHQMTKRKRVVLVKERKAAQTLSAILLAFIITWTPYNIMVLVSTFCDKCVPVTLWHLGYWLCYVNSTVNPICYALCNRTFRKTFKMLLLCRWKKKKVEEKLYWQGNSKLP

SMILES	IC50
COc1cc(NC(C)CCCN)c2ncccc2c1 (configuration not stated) [PRIMAQUINE]	Not Active
CCCCCCNC(=O)n1cc(F)c(=O)[nH]c1=O [CARMOFUR]	Not Active
O=c1[nH]c2ccccc2c2ccccc12	Not Active
C=C(Cl)Cl [1,1-DICHLOROETHENE]	Not Active
CC(=O)[C@]1(O)Cc2c(O)c3c(c(O)c2[C@@H](O[C@H]2C[C@H](N)[C@H](O)[C@H](C)O2)C1)C(=O)c1ccccc1C3=O [IDARUBICIN]	Not Active
Oc1ccccc1 [PHENOL]	Not Active
O=C(Nc1ccc(Cl)c(Cl)c1)c1cc(Cl)cc(Cl)c1O [3,3',4',5-TETRACHLOROSALICYLANILIDE]	Not Active
CC(=O)Nc1ccc2c(c1)Cc1ccccc1-2 [2-ACETYLAMINOFLUORENE]	Not Active
C[N+](C)(C)CCOC(N)=O.[Cl-] [CARBACHOL]	Not Active
Oc1ncnc2[nH]ncc12 [ALLOPURINOL]	Not Active

same assay, conditions: read-out: IC50

SMILES	IC50 [nM]
CC(CN1c2ccccc2Sc2ccccc21)N(C)C (configuration not stated) [PROMETHAZINE]	4.6
Cc1cc(C(C)(C)C)c(O)c(C)c1CC1=NCCN1 [OXYMETAZOLINE]	1330

same assay, conditions: read-out: Ki

SMILES	Ki [nM]
CC(CN1c2ccccc2Sc2ccccc21)N(C)C (configuration not stated) [PROMETHAZINE]	3.31
Cc1cc(C(C)(C)C)c(O)c(C)c1CC1=NCCN1 [OXYMETAZOLINE]	957

molecular target: T4, Amine oxidase [flavin-containing] A (Homo sapiens, UniProt P21397); test: DRUGMATRIX: Monoamine Oxidase MAO-A enzyme inhibition (substrate: Kynuramine); design: species or system BTI-TN-5B1-4; conditions: Not Active = under 50% inhibition at 10 µM; read-out: IC50
T4 sequence (P21397 whole entry): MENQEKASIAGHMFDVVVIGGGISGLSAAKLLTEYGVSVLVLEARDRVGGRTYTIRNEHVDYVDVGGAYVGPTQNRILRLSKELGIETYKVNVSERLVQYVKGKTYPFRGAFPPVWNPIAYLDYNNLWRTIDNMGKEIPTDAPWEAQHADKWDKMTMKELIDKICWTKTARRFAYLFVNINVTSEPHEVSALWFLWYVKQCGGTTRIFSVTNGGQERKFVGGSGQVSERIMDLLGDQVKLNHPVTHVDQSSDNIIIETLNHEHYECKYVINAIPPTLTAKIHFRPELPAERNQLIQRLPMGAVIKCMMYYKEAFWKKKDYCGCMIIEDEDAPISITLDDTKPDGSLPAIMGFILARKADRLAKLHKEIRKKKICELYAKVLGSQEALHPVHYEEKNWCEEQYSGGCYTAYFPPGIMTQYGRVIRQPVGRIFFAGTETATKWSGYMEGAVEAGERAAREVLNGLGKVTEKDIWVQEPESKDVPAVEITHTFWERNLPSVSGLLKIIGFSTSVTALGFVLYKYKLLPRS

SMILES	IC50 [nM]
CC(=O)Nc1ccc2c(c1)Cc1ccccc1-2 [2-ACETYLAMINOFLUORENE]	59

same assay, conditions: bti-tn-5b1-4; Not Active = under 50% inhibition at 10 µM

SMILES	IC50
CC(CN1c2ccccc2Sc2ccccc21)N(C)C (configuration not stated) [PROMETHAZINE]	Not Active
COc1cc(NC(C)CCCN)c2ncccc2c1 (configuration not stated) [PRIMAQUINE]	Not Active
CCCCCCNC(=O)n1cc(F)c(=O)[nH]c1=O [CARMOFUR]	Not Active
Cc1cc(C(C)(C)C)c(O)c(C)c1CC1=NCCN1 [OXYMETAZOLINE]	Not Active
O=c1[nH]c2ccccc2c2ccccc12	Not Active
C=C(Cl)Cl [1,1-DICHLOROETHENE]	Not Active
CC(=O)[C@]1(O)Cc2c(O)c3c(c(O)c2[C@@H](O[C@H]2C[C@H](N)[C@H](O)[C@H](C)O2)C1)C(=O)c1ccccc1C3=O [IDARUBICIN]	Not Active
Oc1ccccc1 [PHENOL]	Not Active
O=C(Nc1ccc(Cl)c(Cl)c1)c1cc(Cl)cc(Cl)c1O [3,3',4',5-TETRACHLOROSALICYLANILIDE]	Not Active
C[N+](C)(C)CCOC(N)=O.[Cl-] [CARBACHOL]	Not Active
Oc1ncnc2[nH]ncc12 [ALLOPURINOL]	Not Active

molecular target: Protein kinase C alpha type (Homo sapiens, UniProt P17252); type: cell-based; conditions: sf9

SMILES	IC50
CC(CN1c2ccccc2Sc2ccccc21)N(C)C (configuration not stated) [PROMETHAZINE]	Not Active
COc1cc(NC(C)CCCN)c2ncccc2c1 (configuration not stated) [PRIMAQUINE]	Not Active
CCCCCCNC(=O)n1cc(F)c(=O)[nH]c1=O [CARMOFUR]	Not Active
Cc1cc(C(C)(C)C)c(O)c(C)c1CC1=NCCN1 [OXYMETAZOLINE]	Not Active
O=c1[nH]c2ccccc2c2ccccc12	Not Active
C=C(Cl)Cl [1,1-DICHLOROETHENE]	Not Active
CC(=O)[C@]1(O)Cc2c(O)c3c(c(O)c2[C@@H](O[C@H]2C[C@H](N)[C@H](O)[C@H](C)O2)C1)C(=O)c1ccccc1C3=O [IDARUBICIN]	Not Active
Oc1ccccc1 [PHENOL]	Not Active
O=C(Nc1ccc(Cl)c(Cl)c1)c1cc(Cl)cc(Cl)c1O [3,3',4',5-TETRACHLOROSALICYLANILIDE]	Not Active
CC(=O)Nc1ccc2c(c1)Cc1ccccc1-2 [2-ACETYLAMINOFLUORENE]	Not Active
C[N+](C)(C)CCOC(N)=O.[Cl-] [CARBACHOL]	Not Active
Oc1ncnc2[nH]ncc12 [ALLOPURINOL]	Not Active
